Source: ChEMBL document CHEMBL3832084, “DailyMed|setid=22191eca-c98d-4a07-844e-11edb0f04b8d | DIVIGEL - estradiol gel|Physicians Total Care, Inc”

Key:
Assay type in all cases: ADME, organism-based
Homo sapiens = experiment: (§1) Pharmacokinetic parameters for Estradiol on day 14, following multiple daily topical administration of Divigel 0.1 %,at steady state.; design: dose 0.5 g, dose 1 g, dose 0.25 g, route topical; details: in vivo, topical_or_ocular, dosed compound id 17, dosed compound name ESTRADIOL, regimen Multiple daily dose, sampling time1 Day 14 days, study dosing duration 14 days, tissue Plasma
[1] = as §1; design: dose 0.5 g, dose 1 g, dose 0.25 g, route topical; details: human, in vivo, topical or ocular, dose 0.25 g, dosed compound id 17, dosed compound name ESTRADIOL, regimen Multiple daily dose, sampling time1 Day 14 days, study dosing duration 14 days, tissue Plasma
[2] = Apparent terminal half-life of Estradiol evaluated after topical administration of Divigel.; details: human, in vivo, topical or ocular, dosed compound id 17, dosed compound name ESTRADIOL, tissue Plasma, read-out: t1/2(app) (converted)

Cavg (Homo sapiens; dose 0.25 g): 0.0098 ng/mL
Cavg (Homo sapiens; dose 0.5 g): 0.021 ng/mL
Tmax (Homo sapiens; dose 0.5 g): 10 h
Cavg (Homo sapiens; dose 1 g): 0.0305 ng/mL
Tmax (Homo sapiens; dose 1 g): 8 h
Tmax [1]: 16 h
half-life [2]: 10 h
Compound: C[C@]12CC[C@@H]3c4ccc(O)cc4CC[C@H]3[C@@H]1CC[C@@H]2O [ESTRADIOL]
